Data on three molecules can be found in patent US11896591B2, “Compositions and methods for preparing and using mitochondrial uncouplers” (UNIVERSITY OF VIRGINIA PATENT FOUNDATION, priority 2017, dated 2024).

Entries after “also recorded” stand apart in the source; their conditions may differ.

In assay [1] the test system is STAM mouse model of fatty liver disease. Put plainly: STAM mouse model of fatty liver disease (NALFD criteria: steatosis, inflammation, ballooning). Type of assay: in vivo.
In assay [2] the test system is Diet-induced Obesity Mouse Model. Description: Diet Induced Obesity Mouse Study. Type of assay: in vivo, Male C57B/6J mice. On the procedure: Male C57B/6J mice aged 3 months (n=6) are assigned to one of three treatment groups: normal chow diet (Chow), western diet (WD) or western diet containing compound 4c (WD+4c). Mice fed WD and WD 4c are individually housed and given 3 grams of fresh food daily. WD+4c contained a dose of 4c equivalent to 50 mg/kg/day. For all treatments pre-weighed food is placed in cages and food intake is calculated daily. Fat and lean mass are measured by EchoMRI. Fat and lean mass for mice given the high fat Western Diet or the Western Diet with the compound 4c was determined by Echo MRI and shown in FIG. 6.

For another assay, the system named is whole cells. Put plainly: Oxygen consumption rate (OCR) in whole cells, Seahorse XF-24 Flux Analyzer. The format is cell-based. To be noted: for EC50: binned EC50 values, increase in oxygen consumption rate in whole cells. The essentials:
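NMuLi, C2C12, L6 cells, isolated cardiomyocytes and human primary fibroblasts seeded at set densities and adhered 24 h. Compounds injected during Seahorse XF-24 runs; OCR increase measured in 2 min periods, 2-3 wells per condition over three plates (n=6-9), two-way ANOVA with Bonferroni posttest.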

The conditions of assay [3]: patients consuming ˜300 mg/d, over several months, without changes in food intake; cited from earlier work.

A word on the EC50: it is the concentration needed to bring the measured effect to its halfway point. Low values mean greater potency, high ones weaker potency. As to `Fc1cccc(Nc2nc3nonc3nc2Nc2ccccc2F)c1` [Compound 4c, N^5-(2-fluorophenyl)-N^6-(3-fluorophenyl)-[1,2,5]oxadiazolo[3,4-b]pyrazine-5,6-diamine], the Anti-inflammatory effects result in assay [1] (STAM mouse model (FIG. 3)) is “anti-inflammatory effects”. Besides, the “Combined NALFD score” value in assay [1] (based on the steatosis, inflammation and ballooning assays, vs BAM15) is “significantly lower NALFD score than BAM15”. The Glucose tolerance test result in assay [2] (WD + 50 mg/kg/day compound 4c vs WD) is “significantly improved glucose tolerance”. In assay [2] (WD + 4c 50 mg/kg/day vs WD, EchoMRI), the Lean mass result was “without losing lean mass; also recorded: substantially the same lean mass”. The Food intake entry in assay [2] (WD + 4c vs WD) is on record as “without a significant change in food intake”. Further, the Fat mass result in assay [2] (Western Diet (WD) + 4c 50 mg/kg/day vs WD, EchoMRI) was “gain less fat mass; also recorded: gained significantly less fat mass”. In the assay with whole cells, this molecule registered a concentration for a half-maximal effect (EC50) below 5 µM. Besides, the “Oxygen consumption rate as a function of drug dose” value in the assay on whole cells (compared with BAM15 or FCCP (FIG. 1, FIG. 2)) was “higher oxygen consumption rate than mitochondrial uncouplers, BAM15 or FCCP; also recorded: consistently high oxygen consumption rate than the mitochondrial uncoupler BAM15”.
Molecule `FC(F)(F)Oc1ccc(Nc2nccnc2Nc2ccc(OC(F)(F)F)cc2)cc1` [Compound 16n, N^2,N^3-bis(4-(trifluoromethoxy)phenyl)pyrazine-2,3-diamine] gave an EC50 with whole cells below 5 µM.
For the molecule `O=[N+]([O-])c1ccc(O)c([N+](=O)[O-])c1` [DNP, 2,4-dinitrophenol], in assay [3], the Weight loss is recorded as 1.5 pounds per week.
